Experimental data from paper PMC11063903, “Engineering a human P2X2 receptor with altered ligand selectivity in yeast” (The Journal of Biological Chemistry, 2024).

Key:
WT P2X2 = molecular target: T1, WT P2X2 (Homo sapiens, UniProt Q9UBL9); test: Fast GCaMP-mScarletI assay in yeast, WT P2X2; assay type: cell-based; conditions: for Bottom, best fit value / Hillslope, best fit value / Top, best fit value: four-parameter logistic fit of ΔF/ΔT
T1 construct: expressed in transfected cells; host or cells: S. cerevisiae BY4741 background, P2X2 genome-integrated under a galactose-inducible promoter
T1 sequence (Q9UBL9 1-471): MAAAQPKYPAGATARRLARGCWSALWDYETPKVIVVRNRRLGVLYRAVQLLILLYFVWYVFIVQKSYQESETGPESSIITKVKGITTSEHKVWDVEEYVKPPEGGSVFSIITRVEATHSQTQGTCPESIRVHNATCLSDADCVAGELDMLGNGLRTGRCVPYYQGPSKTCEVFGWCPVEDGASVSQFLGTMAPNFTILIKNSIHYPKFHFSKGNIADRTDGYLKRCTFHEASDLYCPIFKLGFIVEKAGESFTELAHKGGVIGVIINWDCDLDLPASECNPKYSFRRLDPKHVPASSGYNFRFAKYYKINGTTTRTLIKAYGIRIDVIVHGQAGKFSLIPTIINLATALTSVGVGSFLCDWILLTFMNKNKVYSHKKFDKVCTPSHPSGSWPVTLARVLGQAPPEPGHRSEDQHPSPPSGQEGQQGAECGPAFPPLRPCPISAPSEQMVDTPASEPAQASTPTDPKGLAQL
Protocol: Figure 4 Unnatural-ligand gating in LBD libraries.A, WT P2X2 was tested with 1 mM ATP, 500 μM AMP-PNP, and compared to ATP with the broken receptor (K81C K83C) control with 1 mM ATP in the fast GCaMP-mScarletI assay (n = 3). […] B, heat map summarizing AMP-PNP signaling (ΔF/ΔT, fast GCaMP-mScarletI assay) in the site-saturation libraries (n = 2–3). All values are normalized to WT P2X2 with saturating amounts of AMP-PNP (500 μM) and therefore represent low signal (ΔF/ΔT) compared to the ATP ligand. C, F301W, F303Y, and A304W were combinatorially combined and tested against the WT, K81C K83C broken P2X2, and the single mutant clones with both ATP (1 mM, black) and AMP-PNP (500 μM, pink). […] Values here represent signal onset and are not normalized to a positive control (n = 2–5). D–K, dose response of each P2X variant with both ATP (black) and AMP-PNP (pink) in the fast GCaMP-mScarletI assay (n = 3). Statistics were performed via one-way ANOVA with Dunnett’s multiple comparisons with to the “broken” K81C K83C negative control. ∗ represents a p value ≤0.05, ∗∗ is p ≤ 0.01, and ∗∗∗ is p ≤ 0.001.
Given that the yeast-based screen seemed to recapitulate important structural and functional features of human ion channel function, we hypothesized that it might be possible to engineer new P2X2 functionalities in yeast, including new ligand specificity. […] We screened our 133-member library in the presence of 500 μM AMP-PNP (Fig. S7). While the AMP-PNP signal was uniformly low, three substitutions (F301W, F303Y, and A304W) increased signaling 2.5 to 2.8 times relative to the negative control receptor (Figs. 4B, and S7, D, F, and G). To gain a more complete view of the properties of these mutants, dose–response curves were generated with ATP and AMP-PNP (Fig. 4, D–G, and Table S2).
GCaMP assays were performed as follows. P2X2 GCaMP strains were designed with a bi-cistronic reporter, in which the GCaMP protein was followed by a 2A peptide and a mScarletI reporter ([53]). The co-translated mScarletI was designed to act as a control for plasmid loss, GCaMP breakage via nonsense mutation, and contamination. […] P2X2-GCaMP strains were cultured and induced as previously described. Samples were induced for 24 h to allow for the accumulation of the mature GCaMP protein. Cells were washed three times in 0.1 M MES/Tris buffer and resuspended with MES/Tris with supplemental calcium. Cells were loaded onto a black, clear bottom microplate and imaged on a FlexStation3 plate reader. Samples were imaged in “flex” mode. Samples were imaged for 48 s at an interval of 1.6 s. Fluorescence was measured with an excitation at 485 nm, and emission 525 nm. At the 21 s mark, 100 μl ligand solution was transferred to the cells. For strains with mScarlet, fluorescence was read with excitation 570 nm/emission 610 nm. Slopes were calculated from the last 6 points of measurement and were normalized to the positive control samples. Any replicate in which the mScarlet value was measured to be over 2 standard deviations less than the mean for that set was discarded from further analysis.
For multiple comparisons in the site-saturation screening data, One-way ANOVA with Dunnett’s multiple comparisons test was performed where every sample was compared to the “broken” negative control. Significance was plotted where ∗ represents a p value ≤0.05, ∗∗ is p ≤0.01, and ∗∗∗ is p ≤0.001. Dose–response curves were fit with nonlinear regression software using a four-parameter logistic curve. All statistics were calculated and plotted in Graphpad Prism software.

P2X2 G298 substitutions = test: Site-saturation screen of ligand-binding domain with ATP, G298 substitutions; assay type: cell-based, human; conditions: 500 μM ATP
Excerpt: (§1) The yeast P2X2 screening platform poses an opportunity to probe the structure-function of the ligand-binding domain in detail. The conserved P2X “NFR” motif at residues 300 to 302 is directly involved in bonding to the ATP triphosphate moiety ([41]), so we mutagenized residues at or near this motif (298–304), ultimately covering 133 variants (7 sites, 19 residues each). […] We compared our results to phylogenetic data based on a multiple sequence alignment (MSA) from a curated set of 419 related P2X homologs (Figs. 3B, and S5; Table S1).
(§2) Figure 3 Structure-function analysis of the ligand binding domain.A, heat map summarizing the screening data of ATP with seven site-saturation libraries surrounding the NFR-motif. B, sequence-logo plot of the mutagenized residues and percent identity scores as determined from MSA. C, homology model of P2X2 colored by sequence conservation as calculated from a multiple sequence alignment of 419 related P2X genes. Conservation is scored on a log scale where maroon is more conserved and blue is less conserved. D, ATP in the ligand-binding pocket of P2X2. […]
(§3) GCaMP assays were performed as follows. […] Cells were loaded onto a black, clear bottom microplate and imaged on a FlexStation3 plate reader. […] Fluorescence was measured with an excitation at 485 nm, and emission 525 nm. […] For strains with mScarlet, fluorescence was read with excitation 570 nm/emission 610 nm. […]

P2X2 F301 mutants = test: Site-saturation screen of ligand-binding domain with ATP, F301 mutants; assay type: cell-based, human; conditions: 500 μM ATP
Excerpt: as §1, §2, §3

P2X2 A304I = molecular target: T2, P2X2 A304I (Homo sapiens, UniProt Q9UBL9, A304I); test: Site-saturation screen of ligand-binding domain with ATP, A304I; assay type: cell-based; conditions: 500 μM ATP, ± sd
T2 construct: expressed in transfected cells; host or cells: Saccharomyces cerevisiae BY4741 derivative, genome-integrated, galactose-inducible
T2 sequence (Q9UBL9 whole entry A304I, the tested form may be a part): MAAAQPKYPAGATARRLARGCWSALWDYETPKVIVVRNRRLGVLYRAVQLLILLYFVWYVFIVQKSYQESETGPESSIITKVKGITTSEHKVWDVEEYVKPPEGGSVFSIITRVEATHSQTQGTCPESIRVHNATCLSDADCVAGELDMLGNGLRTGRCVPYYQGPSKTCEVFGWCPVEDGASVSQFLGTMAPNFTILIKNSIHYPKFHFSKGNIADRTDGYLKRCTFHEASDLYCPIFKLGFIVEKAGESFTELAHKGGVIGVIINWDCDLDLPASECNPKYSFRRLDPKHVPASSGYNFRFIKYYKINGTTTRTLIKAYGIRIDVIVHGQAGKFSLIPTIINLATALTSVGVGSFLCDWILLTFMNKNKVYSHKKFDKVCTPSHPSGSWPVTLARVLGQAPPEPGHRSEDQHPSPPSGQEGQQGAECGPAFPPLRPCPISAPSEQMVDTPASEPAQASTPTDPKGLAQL
Excerpt: as §1, §2, §3

Structure (SMILES) | signal of wildtype P2X2 receptor (WT P2X2; 500 μM AMP-PNP, Fig. 4A) | Bottom, best fit value (WT P2X2; n = 3) | Hillslope, best fit value (WT P2X2; n = 3) | Top, best fit value (WT P2X2; n = 3) | ligand gating activity compared to the negative control (P2X2 G298 substitutions) | signaling (P2X2 F301 mutants) | signal, % of WT signaling (P2X2 A304I) | EC50 (WT P2X2; four-parameter logistic fit, n = 3, unit inferred, unit M, read-out: EC50, best fit value)
Nc1ncnc2c1ncn2[C@@H]1O[C@H](COP(=O)(O)OP(=O)(O)NP(=O)(O)O)[C@@H](O)[C@H]1O [AMP-PNP] | nearly undetectable signal | 0.429 | -1 | 1.129 |  |  |  | 
Nc1ncnc2c1ncn2[C@@H]1O[C@H](COP(=O)(O)OP(=O)(O)OP(=O)(O)O)[C@@H](O)[C@H]1O [ATP] |  | 1.37 | 2.27 | 70.62 | none of the G298 substitutions exhibiting ligand gating activity | None of the F301 mutants showed significant signaling | 24 ± 17% | 5.75 µM
